{
  "source": "paper PMC5108698",
  "about": "(Biopolymers, 2016)",
  "key": {"pancreatic trypsin": {"target": "pancreatic trypsin (Sus scrofa, UniProt P00761)", "sequence (P00761 9-231)": "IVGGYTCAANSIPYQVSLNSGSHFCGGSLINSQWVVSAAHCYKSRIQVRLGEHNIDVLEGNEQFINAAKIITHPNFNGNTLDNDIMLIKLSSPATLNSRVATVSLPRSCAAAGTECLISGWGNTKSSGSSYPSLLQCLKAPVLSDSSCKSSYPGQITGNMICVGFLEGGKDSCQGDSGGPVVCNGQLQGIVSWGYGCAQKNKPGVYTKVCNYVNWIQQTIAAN", "assay": "Trypsin inhibitory assay", "format": "biochemical", "conditions": "recombinantly produced SFTI-1"}, "[1]": {"test_system": "trypsin (trypsin-sepharose beads)", "conditions": "incubated with trypsin; ref [34]; cited from earlier work"}, "mammalian cells": {"test_system": "mammalian cells", "conditions": "ref [13]; cited from earlier work"}, "[2]": {"assay": "NMR characterization in solution", "format": "physicochemical", "conditions": "in-cell produced SFTI-1, approximately 0.2 mM, 80 mM potassium phosphate pH 6.5, 90% H2O/10% 2H2O, 298 K"}, "cellular membranes": {"test_system": "cellular membranes", "conditions": "ref [13]; cited from earlier work"}, "[3]": {"conditions": "ref [10], [12]; cited from earlier work"}},
  "note": "Entries after “also recorded” stand apart in the source; their conditions may differ.",
  "data": [
    {"smiles": "CC[C@H](C)[C@@H]1NC(=O)[C@@H]2CCCN2C(=O)[C@@H]2CCCN2C(=O)[C@H]([C@@H](C)CC)NC(=O)[C@H](CO)NC(=O)[C@H](CCCCN)NC(=O)[C@H]([C@@H](C)O)NC(=O)[C@@H]2CSSC[C@H](NC1=O)C(=O)N[C@@H](Cc1ccccc1)C(=O)N1CCC[C@H]1C(=O)N[C@@H](CC(=O)O)C(=O)NCC(=O)N[C@@H](CCCNC(=N)N)C(=O)N2", "note": "[SFTI-1, sunflower trypsin inhibitor 1]", "values": [
      {"measurement": "inhibition of trypsin", "setting": "pancreatic trypsin", "result": "actively inhibit trypsin; also recorded: fully active"},
      {"measurement": "equilibrium between cyclic and linear forms with trypsin", "setting": "[1]", "result": "reach equilibrium between the cyclic and the linear forms when incubated with trypsin"},
      {"measurement": "toxicity to mammalian cells", "setting": "mammalian cells", "result": "non-toxic to mammalian cells"},
      {"measurement": "aggregation state in solution", "setting": "[2]", "result": "monodispersed"},
      {"measurement": "crossing of cellular membranes", "setting": "cellular membranes", "result": "able to cross cellular membranes"},
      {"measurement": "stability to thermal or enzymatic degradation", "setting": "[3]", "result": "exceptional stability to thermal or enzymatic degradation"}
    ]}
  ]
}
